Earlier results, collected in patent US12427123B2, “Phenylephrine hydrochloride compositions and containers” (Endo Operations Limited, priority 2020, dated 2025).
Where two headings read alike, the source gives them in different places.

Experiments:
[1] = not given; remark: listed apart in the source

| SMILES | dose excreted unchanged in the urine (in vivo) [%] | α-phase half-life (intravenous administration, 2-compartment model, distribution from central compartment) [min] | optical stability (racemization as a function of pH) ([1]; solutions at pH 3.0 and pH 6.0) | solubility ([1]; chloroform) | solubility ([1]; ethanol) | solubility ([1]; ethyl ether) | solubility ([1]; water) |
| --- | --- | --- | --- | --- | --- | --- | --- |
| CNC[C@H](O)c1cccc(O)c1 [phenylephrine] | 12 | < 5 | optically stable |  |  |  |  |
| CNC[C@H](O)c1cccc(O)c1.Cl [Phenylephrine hydrochloride] |  |  |  | insoluble | freely soluble | insoluble | very soluble |
